Data as given in patent US8883410B2, “Method for determining the stability of organic methyleneamines in the presence of semicarbazide-sensitive amine oxidase” (Sanofi, priority 2007, dated 2014).

Molecular target: T1, human SSAO, full-length, untagged (Homo sapiens, UniProt Q16853)
T1 construct: expressed in transfected cells; cleared NP-40 cell lysate
T1 sequence (Q16853 1-763): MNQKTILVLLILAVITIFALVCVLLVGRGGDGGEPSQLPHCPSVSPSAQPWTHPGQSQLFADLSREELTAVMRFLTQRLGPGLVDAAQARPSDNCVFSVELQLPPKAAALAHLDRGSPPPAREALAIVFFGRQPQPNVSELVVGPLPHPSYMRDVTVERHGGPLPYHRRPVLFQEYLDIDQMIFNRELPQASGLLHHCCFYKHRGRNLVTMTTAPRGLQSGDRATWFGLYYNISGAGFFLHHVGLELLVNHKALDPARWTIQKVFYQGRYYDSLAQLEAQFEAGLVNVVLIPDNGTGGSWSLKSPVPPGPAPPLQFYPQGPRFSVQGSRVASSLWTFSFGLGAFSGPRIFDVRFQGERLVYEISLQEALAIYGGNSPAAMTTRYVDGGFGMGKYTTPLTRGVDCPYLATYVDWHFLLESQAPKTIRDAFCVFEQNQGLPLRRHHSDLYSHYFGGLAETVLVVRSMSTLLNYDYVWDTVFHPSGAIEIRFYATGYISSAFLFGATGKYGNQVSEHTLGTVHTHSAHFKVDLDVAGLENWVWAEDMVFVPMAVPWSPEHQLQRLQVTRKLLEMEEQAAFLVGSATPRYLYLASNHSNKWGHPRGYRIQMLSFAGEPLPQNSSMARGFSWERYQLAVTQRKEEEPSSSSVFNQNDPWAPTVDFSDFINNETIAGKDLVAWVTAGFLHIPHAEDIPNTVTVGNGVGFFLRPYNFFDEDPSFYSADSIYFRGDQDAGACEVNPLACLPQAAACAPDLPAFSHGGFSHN
Test: Benzylamine stability in lysate of cells expressing full-length SSAO (untagged), LC/MS/MS
Format: in vitro ADME
Experimental: The expression constructs were prepared by cloning these PCR products into the pCDNA5-FRT-To-DEST vector (Invitrogen, Gateway System™). The forward and reverse DNA sequence of each construct was confirmed including expressed sequences and at least 100 base pairs either side of this. Stable cell lines for Flp-In CHO, Flp-In CHO T-Rex, and Flp-In HEK 293 (Invitrogen, Flp-In system™) were generated using these 6 constructs according to manufacturer's instructions. Cells were co-transfected with the regulatory vector, pOG44, and each of the pCDNA5-FRT-To-DEST constructs using Lipfectamine (Invitrogen) according to manufacturer's instructions. Thus, 18 cell lines were generated: CHO Flp-In full-length SSAO; CHO Flp-In full-length SSAO with C-terminal 6×HIS tag; CHO Flp-In T1 SSAO; CHO Flp-In T1 SSAO with C-terminal 6×HIS tag; CHO Flp-In T2 SSAO; CHO Flp-In T2 SSAO with C-terminal 6×HIS tag; CHO T-Rex Flp-In full-length SSAO; CHO T-Rex Flp-In full-length SSAO with C-terminal 6×HIS tag; CHO T-Rex Flp-In T1 SSAO; CHO T-Rex Flp-In T1 SSAO with C-terminal 6×HIS tag; CHO T-Rex Flp-In T2 SSAO; CHO Flp-In T2 SSAO with C-terminal 6×HIS tag; HEK 293 Flp-In full-length SSAO; HEK 293 Flp-In full-length SSAO with C-terminal 6×HIS tag; HEK 293 Flp-In T1 SSAO; HEK 293 Flp-In T1 SSAO with C-terminal 6×HIS tag; HEK 293 Flp-In T2 SSAO; HEK 293 Flp-In T2 SSAO with C-terminal 6×HIS tag.
Adherent CHO cells were cultured at 37° C., 5% CO2 in media containing Ham's F12, 10% fetal bovine serum, 2 mM L-glutamine, 1% Penicillin/Streptomycin, 300 μM hygromycin B. Adherent HEK 293 cells were cultured at 37° C., 5% CO2 in D-MEM (high glucose), 10% fetal bovine serum, 2 mM L-glutamine, and 200 μM hygromycin B. Stable transformants were identified by loss of zeocin resistance. Once the cells were 80% confluent, SSAO expression was induced by the addition of Tetracycline to 1 μg/mL. Following 18 hours, the cells were harvested using a trypsin treatment of 3 minutes, at room temperature. Cells were washed 3 times in phosphate buffered saline before flash freezing in liquid nitrogen.
For the preparation of cell lysate for activity testing, frozen cell pellets were resuspended in lysate buffer containing 10 mM Tris-HCl (pH 7.2), 150 mM NaCl, 1.5 mM MgCl2, 1% v/v NP-40 and incubated for 15 minutes on ice. Lysate was cleared by centrifugation 800×g for 10 minutes, 4° C. and stored in aliquots at −80° C. until use. Proteins were determined using Pierce Coomassie Protein Reagent, according to manufacturer's instructions.
For each assay run, 1 mL of cell lysate (1.5 mg/mL protein) was mixed with benzylamine to 2000 ng/mL final concentration. At each corresponding time point, […] the incubation mixture was transferred to a microcentrifuge tube (1.7 mL) and mixed with 50 μL of acetonitrile. The tubes were vortex mixed briefly to ensure complete mixing and then centrifuged at 10,000×g for 5 minutes. The supernatant was removed and 50 μL was transferred to an autosampler vial and mixed with 50 μL of water before LC/MS/MS analysis. Benzylamine remaining in the lysate was analyzed with LC/MS/MS method.
LC/MS/MS analysis was performed with a PE Sciex API 3000 mass spectrometer under the following conditions listed below and in Tables 1 and 2:
The active lysates from CHO Flp-In, CHO Flp-In T-Rex or HEK293 Flp-In expressing full-length SSAO (untagged) were subsequently tested and activity confirmed (Table 4).

Benzylamine Remaining (%) (CHO Flp-In T-Rex lysate, Full-length SSAO, tag None, 0 min (Table 3)): 100%
Benzylamine Remaining (%) (CHO Flp-In T-Rex lysate, Full-length SSAO, tag None, 10 min (Table 3)): 6%
Benzylamine Remaining (%) (CHO Flp-In T-Rex lysate, Full-length SSAO, tag None, 2 h (Table 3)): 0%
Benzylamine Remaining (%) (CHO Flp-In T-Rex, full-length SSAO (untagged), 0 min, subsequent test (Table 4)): 100%
Benzylamine Remaining (%) (CHO Flp-In T-Rex, full-length SSAO (untagged), 10 min, subsequent test (Table 4)): 16%
Benzylamine Remaining (%) (CHO Flp-In T-Rex, full-length SSAO (untagged), 30 min, subsequent test (Table 4)): 1%
Benzylamine Remaining (%) (CHO Flp-In lysate, Full-length SSAO, tag None, 0 min (Table 3)): 100%
Benzylamine Remaining (%) (CHO Flp-In lysate, Full-length SSAO, tag None, 10 min (Table 3)): 1%
Benzylamine Remaining (%) (CHO Flp-In lysate, Full-length SSAO, tag None, 2 h (Table 3)): 1%
Benzylamine Remaining (%) (CHO Flp-In, full-length SSAO (untagged), 0 min, subsequent test (Table 4)): 100%
Benzylamine Remaining (%) (CHO Flp-In, full-length SSAO (untagged), 10 min, subsequent test (Table 4)): 9%
Benzylamine Remaining (%) (CHO Flp-In, full-length SSAO (untagged), 30 min, subsequent test (Table 4)): 1%
Benzylamine Remaining (%) (HEK293 Flp-In, full-length SSAO (untagged), 0 min, subsequent test (Table 4)): 100%
Benzylamine Remaining (%) (HEK293 Flp-In, full-length SSAO (untagged), 10 min, subsequent test (Table 4)): 50%
Benzylamine Remaining (%) (HEK293 Flp-In, full-length SSAO (untagged), 30 min, subsequent test (Table 4)): 9%
Benzylamine Remaining (%) (HEK293 lysate, Full-length SSAO, tag None, 0 min (Table 3)): 100%
Benzylamine Remaining (%) (HEK293 lysate, Full-length SSAO, tag None, 10 min (Table 3)): 58%
Benzylamine Remaining (%) (HEK293 lysate, Full-length SSAO, tag None, 2 h (Table 3)): 2%
Structure (SMILES): NCc1ccccc1 [Benzylamine]
